Source: US4264600A (priority 1979, dated 1981)
Values after ≈ are worked out from the molar mass of the structure shown. Read-outs that look alike come from different tables or passages of the source.

How the values were obtained:
[1] = tested on: Maryland B influenza virus; assay: in vitro plaque inhibition, Maryland B influenza virus; type: cell-based; conditions: for IC50: unidentified influenza virus, in Chlorocebus sabaeus, 72 h, read-out: I50, amount of drug which inhibits 50% of the plaques
[2] = tested on: Ann Arbor influenza virus; assay: in vitro plaque inhibition, Ann Arbor influenza virus; type: cell-based; conditions: for IC50: unidentified influenza virus, in Chlorocebus sabaeus, 72 h, read-out: I50, amount of drug which inhibits 50% of the plaques
[3] = tested on: Ann Arbor or Maryland B strains of influenza virus; assay: in vivo survival of mice infected with influenza virus; design: species or system White Swiss female mice, McAllister strain; conditions: for minimal effective dose: read-out: in vivo dose at which there was a statistically significant increase in survival
Experimental: In vivo activity was determined as follows: White Swiss female mice (11-13 g.) McAllister strain were infected with aqueous dilutions of Ann Arbor or Maryland B strains of influenza virus in an air borne injection apparatus. Graded dose levels of the drug were injected intraperitoneally (IP) or administered orally by gavage 24 and 4 hours preinfection and 24 and 48 hours postinfection. Date of death was determined. The drug was administered in water containing 2% of a surfactant. In Table 1, column 7, a dosage level for each drug is given at which there was a statistically significant increase in survival and column 6 gives the route of administration.

Vaccinia = type: cell-based, Vaccinia virus; conditions: in vitro
Echo 10 = assay: in vitro plaque suppression test, Echo 10; type: cell-based, Echo 10 virus; conditions: Echo 10, in vitro
Herpes simplex = assay: in vitro plaque suppression test, Herpes simplex; type: cell-based, Herpes simplex virus
Polio III = type: cell-based, Polio III virus; conditions: in vitro
[4] = compared with 6,7-dichloro congener
[5] = rats, 100 mg/kg
[6] = dogs, 30-60 mg/kg
[7] = route IP, 24 and 4 hours preinfection and 24 and 48 hours postinfection
[8] = route IP, OR, 24 and 4 hours preinfection and 24 and 48 hours postinfection
[9] = increased to 60 mg/day for 7 days
[10] = nasogastric gavage, 30 mg/day for 14 days

O=C(OCC1CCC1)c1nc2cc(Cl)c(Cl)cc2[nH]c1=O [L, Cyclobutylmethyl 6,7-Dichloro-3,4-dichloro-3-oxo-2-quinoxaline Carboxylate]
IC50 [1]: 15 µg/mL (≈ 45.8 µM)
IC50 [2]: 20 µg/mL (≈ 61.1 µM)

COC(=O)c1nc2cc(Cl)c(Cl)cc2[nH]c1=O [C]
IC50 [1]: < 10 µg/mL
minimal effective dose ([3]; ip): 60 mg/kg

CCOC(=O)c1nc2cc(I)c(I)cc2[nH]c1=O [F, Ethyl 6,7-Diiodo-3,4-dihydro-3-oxo-2-quinoxaline Carboxylate]
Ann Arbor influenza virus in vitro activity (in words) ([2]; Ann Arbor influenza virus, in vitro): Active
minimal effective dose [3]: 80 mg/kg

Ethyl 6-Nitro-8-chloro-3,4-dihydro-3-oxo-2-quinoxaline carboxylate and Ethyl 7-Nitro-5-chloro-3,4-dihydro-3-oxo-2-quinoxaline Carboxylate [S]
in vivo dose at which there was a statistically significant increase in survival [3, 7]: 80 mg/kg
Activity level (dose level at which activity was found) (Vaccinia): 2000 µg/mg
Activity level (dose level at which activity was found) (Echo 10): 2000 µg/mg
Activity level (dose level at which activity was found) (Herpes simplex): 2000 µg/mg

Ethyl 6(7)-Chloro-7(6)-bromo-3,4-dihydro-3-oxo-2-quinoxalineCarboxylate
in vivo dose at which there was a statistically significant increase in survival [3, 7]: 80 mg/kg
Activity level (dose level at which activity was found) (Vaccinia): 2000 µg/mg
Activity level (dose level at which activity was found) (Polio III): 2000 µg/mg

O=C(O)c1nc2cc(Cl)c(Cl)cc2[nH]c1=O [E]
IC50 [1]: < 71 µg/mL
IC50 [2]: < 100 µg/mL
minimal effective dose ([3]; ip): 50 mg/kg

CCOC(=O)c1nc2cc(Br)c(Br)cc2[nH]c1=O [M]
minimal effective dose [3, 8]: 40 to 80 mg/kg
toxicity in monkeys relative to its 6,7-dichloro congener [4]: much less toxic
degree of hepatotoxicity (both drugs) [5]: equal, though minor
degree of nephrotoxicity (both drugs) [5]: equal, though minor
degree of hepatotoxicity (both drugs) [6]: equal, though minor
degree of nephrotoxicity (both drugs) [6]: equal, though minor

Ethyl 6-methoxy-5-nitro-3,4-dihydro-3-oxo-2-quinoxaline Carboxylate and Ethyl 7-Methoxy-8-nitro-3,4-dihydro-3-oxo-2-quinoxaline Carboxylate
in vivo dose at which there was a statistically significant increase in survival [3, 7]: 80 mg/kg
Activity level (dose level at which activity was found) (Echo 10): 2000 µg/mg
Activity level (dose level at which activity was found) (Herpes simplex): 2000 µg/mg

O=C(O)CCc1nc2cc(Cl)c(Cl)cc2[nH]c1=O [B]
minimal effective dose ([3]; ip): 50 mg/kg

O=C(OCCCl)c1nc2cc(Cl)c(Cl)cc2[nH]c1=O [J]
IC50 [1]: 58 µg/mL (≈ 180 µM)
IC50 [2]: 76 µg/mL (≈ 236 µM)

C=CCOC(=O)c1nc2cc(Cl)c(Cl)cc2[nH]c1=O [K]
IC50 [1]: 33 µg/mL (≈ 110 µM)
IC50 [2]: 75 µg/mL (≈ 251 µM)

CCCCOC(=O)c1nc2cc(Cl)c(Cl)cc2[nH]c1=O [G]
IC50 [1]: 38 µg/mL (≈ 121 µM)

CCOC(=O)c1nc2cc(Cl)c(Cl)cc2[nH]c1=O [D]
IC50 [1]: 38 µg/mL (≈ 132 µM)
minimal effective dose [3, 8]: 40 mg/kg
blood urea nitrogen (30 then 60 mg/day): elevated
creatinine levels (30 then 60 mg/day): elevated
kidney damage (30 then 60 mg/day): evidence of kidney damage
AP [9]: remain elevated
SGPT [9]: returned to normal
AP [10]: moderate increases
SGPT [10]: moderate increases
liver damage (from AP and SGPT) [10]: suggestive of liver damage
degree of hepatotoxicity (both drugs) [5]: equal, though minor
degree of nephrotoxicity (both drugs) [5]: equal, though minor
degree of hepatotoxicity (both drugs) [6]: equal, though minor
degree of nephrotoxicity (both drugs) [6]: equal, though minor

ethyl 6(7)-nitro-3,4-dihydro-3-oxo-2-quinoxaline carboxylate
I50, amount of drug which inhibits 50% of the plaques ([1]; Maryland B influenza virus, in vitro, 72 hours at 37° C.): 40 µg/mL
in vivo dose at which there was a statistically significant increase in survival [3, 7]: 80 mg/kg
Activity level (dose level at which activity was found) (Vaccinia): 2000 µg/mg
